Here are results for 38 molecules from patent US9745328B2, “Flap modulators” (JANSSEN PHARMACEUTICA NV, priority 2013, dated 2017).

Structures are written as SMILES. Where a name gives a salt, the structure may show the parent alone.

Sequence of human FLAP (P20292 whole entry): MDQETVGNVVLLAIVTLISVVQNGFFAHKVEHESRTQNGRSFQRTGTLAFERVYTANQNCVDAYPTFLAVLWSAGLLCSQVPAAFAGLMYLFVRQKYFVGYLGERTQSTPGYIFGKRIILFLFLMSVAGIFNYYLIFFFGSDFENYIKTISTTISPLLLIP

The target in one assay is human FLAP (Homo sapiens (Human), UniProt P20292). In words: FLAP binding assay (HTRF format). The note with it: Table 6 (additional runs), human FLAP wild type. The essentials:
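Samples were run in duplicate on each of two plates and the plate results averaged. Read-out is the HTRF signal ratio.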
As for `Nc1ncc(-c2ccc(-c3ccccc3S(=O)(=O)N[C@H]3CCCNC3=O)cc2F)cn1` [Example 267, 4′-(2-Aminopyrimidin-5-yl)-3′-fluoro-N-[(3S)-2-oxopiperidin-3-yl]biphenyl-2-sulfonamide trifluoroacetic acid salt], the Ki came to 185 nM.

On to `Nc1cnc(-c2ccc(-c3ccccc3S(=O)(=O)NCCc3ccccc3)cc2F)cn1` [Example 17, 4′-(5-Aminopyrazin-2-yl)-3′-fluoro-N-(2-phenylethyl)biphenyl-2-sulfonamide], for which the affinity, expressed as Ki, was 1.7 nM.

Molecule `C[C@H](CO)NS(=O)(=O)c1ccccc1-c1ccc(-c2cnc3[nH]ccc3c2)c(F)c1` [Example 363, 3′-Fluoro-N-[(1R)-2-hydroxy-1-methylethyl]-4′-(1H-pyrrolo[2,3-b]pyridin-5-yl)biphenyl-2-sulfonamide] gave a Ki of 0.6 nM.

For the molecule `CC(C)(NS(=O)(=O)c1ccccc1-c1ccc(-c2ccc(N)nc2)c(F)c1)C(F)(F)F` [Example 350, 4′-(6-aminopyridin-3-yl)-3′-fluoro-N-(1,1,1-trifluoro-2-methylpropan-2-yl)-[1,1′-biphenyl]-2-sulfonamide], affinity was put at a Ki of 2.4 nM.

`Nc1cnc(-c2ccc(-c3ccccc3S(=O)(=O)NC3CCCCC3)cc2F)cn1` [Example 6, 4′-(5-Aminopyrazin-2-yl)-N-cyclohexyl-3′-fluorobiphenyl-2-sulfonamide] came in with a Ki of 1.1 nM.

In turn, `Nc1cnc(-c2ccc(-c3ccccc3S(=O)(=O)NCCO)cc2F)cn1` [Example 88, 4′-(5-Aminopyrazin-2-yl)-3′-fluoro-N-(2-hydroxyethyl)biphenyl-2-sulfonamide] displayed a Ki of 6.2 nM.

The molecule `Nc1ncc(-c2ccc(-c3ccccc3S(=O)(=O)N[C@H]3CCNC3=O)cc2F)cn1` [Example 263, 4′-(2-Aminopyrimidin-5-yl)-3′-fluoro-N-[(3S)-2-oxopyrrolidin-3-yl]biphenyl-2-sulfonamide] returned a Ki of 127 nM.

The molecule `CCCS(=O)(=O)c1ccccc1-c1ccc(-c2cnc(N)cn2)c(F)c1` [Example 192, 5-[3-Fluoro-2′-(propylsulfonyl)biphenyl-4-yl]pyrazin-2-amine] returned a Ki of 48.3 nM.

On to `Nc1cnc(-c2ccc(-c3ccccc3S(=O)(=O)N[C@@H](c3ccccc3)C(F)(F)F)cc2F)cn1` [Example 19], for which the affinity corresponds to a Ki of 2.2 nM.

In turn, `C[C@H](O)CNS(=O)(=O)Cc1ccccc1-c1ccc(-c2cnc(N)cn2)c(F)c1` [Example 227, (S)-1-[4′-(5-Aminopyrazin-2-yl)-3′-fluorobiphenyl-2-yl]-N-[(2S)-2-hydroxypropyl]methanesulfonamide hydrochloride] had a Ki of 670 nM.

On to `NC1CCN(S(=O)(=O)c2ccccc2-c2ccc(-c3cnc4c(c3)OCCN4)c(F)c2)CC1` [Example 389, 1-{[4′-(3,4-Dihydro-2H-pyrido[3,2-b][1,4]oxazin-7-yl)-3′-fluorobiphenyl-2-yl]sulfonyl}piperidin-4-amine], for which affinity was put at a Ki of 13.1 nM.

The molecule `Nc1cnc(-c2ccc(-c3ccccc3SC(F)(F)F)cc2F)cn1` [Example 189, 5-{3-Fluoro-2′-[(trifluoromethyl)-sulfanyl]biphenyl-4-yl}pyrazin-2-amine] gave a Ki of 63.2 nM.

The molecule `Nc1cnc(-c2ccc(-c3ccccc3S(=O)(=O)N[C@@H]3CCCC[C@H]3O)cc2F)cn1` [Example 85, 4′-(5-Aminopyrazin-2-yl)-3′-fluoro-N-[(1R,2R)-2-hydroxycyclohexyl]biphenyl-2-sulfonamide] yielded a Ki of 1.9 nM.

Take `CNS(=O)(=O)c1cc(C(F)(F)F)ccc1-c1ccc(-c2cnc(N)cn2)c(F)c1` [Example 208, 4′-(5-Aminopyrazin-2-yl)-3′-fluoro-N-methyl-4-(trifluoromethyl)biphenyl-2-sulfonamide]: the Ki turned out to be 0.4 nM.

For `Nc1cnc(-c2ccc(-c3ccccc3S(=O)(=O)NCCCO)cc2F)cn1` [Example 80, 4′-(5-Aminopyrazin-2-yl)-3′-fluoro-N-(3-hydroxypropyl)biphenyl-2-sulfonamide], the affinity corresponds to a Ki of 3.9 nM.

With `Nc1cnc(-c2ccc(-c3ccccc3S(=O)(=O)Nc3ccccc3)cc2F)cn1` [Example 26, 4′-(5-Aminopyrazin-2-yl)-3′-fluoro-N-phenylbiphenyl-2-sulfonamide], the affinity, expressed as Ki, was 0.9 nM.

Consider `COC[C@H](C)NS(=O)(=O)c1ccccc1-c1ccc(-c2cnc(N)cn2)c(F)c1` [Example 175, (S)-4′-(5-aminopyrazin-2-yl)-3′-fluoro-N-(1-methoxypropan-2-yl)-[1,1′-biphenyl]-2-sulfonamide], for which the Ki amounted to 1.4 nM.

`Nc1cnc(-c2ccc(-c3ccccc3S(=O)(=O)N3C[C@@H]4C(N)[C@@H]4C3)cc2F)cn1` (stereo partly drawn) [Example 143, (1R,5S)-3-((4′-(5-aminopyrazin-2-yl)-3′-fluoro-[1,1′-biphenyl]-2-yl)sulfonyl)-3-azabicyclo[3.1.0]hexan-6-amine] returned an inhibition constant (Ki) of 8.5 nM.

With `CC(NS(=O)(=O)c1ccccc1-c1ccc(-c2cnc(N)cn2)c(F)c1)C(F)(F)F` (racemic) [Example 8, (racemic)-4′-(5-Aminopyrazin-2-yl)-3′-fluoro-N-(2,2,2-trifluoro-1-methylethyl)biphenyl-2-sulfonamide racemic], the affinity corresponds to a Ki of 1.3 nM.

In turn, `CC(CO)NS(=O)(=O)c1ccccc1-c1ccc(-c2cnc3[nH]ccc3n2)c(F)c1` (stereo in doubt) [Example 378, 3′-Fluoro-N-[(1R)-2-hydroxy-1-methylethyl]-4′-(5H-pyrrolo[2,3-b]pyrazin-2-yl)biphenyl-2-sulfonamide] displayed a Ki of 0.6 nM.

`CNS(=O)(=O)c1ccccc1-c1ccc(-c2cnc3[nH]ccc3n2)c(F)c1` [Example 379, 3′-Fluoro-N-methyl-4′-(5H-pyrrolo[2,3-b]pyrazin-2-yl)biphenyl-2-sulfonamide]: affinity was put at a Ki of 1.3 nM.

Take `N#CC1CN(S(=O)(=O)c2ccccc2-c2ccc(-c3cnc(N)nc3)c(F)c2)C1` [Example 314, 1-((4′-(2-aminopyrimidin-5-yl)-3′-fluoro-[1,1′-biphenyl]-2-yl)sulfonyl)azetidine-3-carbonitrile]: the affinity corresponds to a Ki of 88.8 nM.

For `CCN(CC)S(=O)(=O)c1ccccc1-c1ccc(-c2ccc(N)nc2)c(F)c1` [Example 343, 4′-(6-aminopyridin-3-yl)-N,N-diethyl-3′-fluoro-[1,1′-biphenyl]-2-sulfonamide], the Ki is 4.3 nM.

In turn, `Nc1cnc(-c2ccc(-c3ccccc3S(=O)(=O)NCCCCCO)cc2F)cn1` [Example 132, 4′-(5-Aminopyrazin-2-yl)-3′-fluoro-N-(5-hydroxypentyl)biphenyl-2-sulfonamide] displayed a Ki of 2.4 nM.

Consider `Nc1cnc(-c2ccc(-c3ccccc3S(=O)(=O)N3CCNC(=O)C3)cc2F)cn1` [Example 66, 4-{1,4′-(5-Aminopyrazin-2-yl)-3′-fluorobiphenyl-2-ylisulfonyl}piperazin-2-one], for which the Ki came out at 26.6 nM.

Still in this assay, the particulars now being: human FLAP wild type, Table 6 (additional runs).
Turning to `Nc1ccnc(Oc2cc(C(F)(F)F)ccc2-c2ccc(-c3cnc(N)nc3)c(F)c2)n1` [Example 559, 5-{2′-[(4-Aminopyrimidin-2-yl)oxy]-3-fluoro-4′-(trifluoromethyl)biphenyl-4-yl}pyrimidin-2-amine], affinity was put at a Ki of 1.5 nM.

Regarding `C[C@H]1CN(C(=O)c2ccccc2-c2ccc(-c3cnc(N)nc3)c(F)c2)CCO1` [Example 777, 5-(3-Fluoro-2′-{[(2S)-2-methylmorpholin-4-yl]carbonyl}biphenyl-4-yl)pyrimidin-2-amine], the affinity corresponds to a Ki of 1620 nM.

`N#Cc1nc(-c2ccc(-c3ccccc3S(=O)(=O)N3CCNC(=O)C3)cc2F)cnc1N` [Example 414, 3-Amino-6-{3-fluoro-2′-[(3-oxopiperazin-1-yl)sulfonyl]biphenyl-4-yl}pyrazine-2-carbontrile] yielded a Ki of 65.5 nM.

Consider `CC(C)(C)NS(=O)(=O)c1ccccc1-c1ccc(-c2cnc(N)cn2)cc1` [Example 571, 4′-(5-Aminopyrazin-2-yl)-N-tert-butylbiphenyl-2-sulfonamide], for which the inhibition constant (Ki) was found to be 1.7 nM.

As to `Nc1cnc(-c2ccc(-c3ccccc3F)cc2F)cn1` [Example 468, 5-(2′,3-Difluorobiphenyl-4-yl)pyrazin-2-amine], the affinity, expressed as Ki, was 332 nM.

`Cc1cc(N)nc(Oc2ccccc2-c2ccc(-c3cnc(N)nc3)c(F)c2)n1` [Example 617, 5-{2′-[(4-Amino-6-methylpyrimidin-2-yl)oxy]-3-fluorobiphenyl-4-yl}pyrimidin-2-amine]: the inhibition constant Ki was 162 nM.

In turn, `Nc1cnc(-c2ccc(-c3ccc(C(F)(F)F)cc3F)cc2F)cn1` [Example 471, 5-[2′,3-Difiuoro-4′-(trifluoromethyl)biphenyl-4-yl]pyrazin-2-amine] registered an inhibition constant (Ki) of 55.8 nM.

In the case of `Cc1cc(N)nc(Oc2ccccc2-c2ccc(-c3cnc(N)cn3)c(F)c2)n1` [Example 616, 2-{[4′-(5-Aminopyrazin-2-yl)-3′-fluorobiphenyl-2-yl]oxy}-6-methylpyrimidin-4-amine], the affinity, expressed as Ki, was 16.4 nM.

For the molecule `CC(C)(C)NS(=O)(=O)c1ccccc1-c1ccc(-c2ccc3[nH]ccc3c2)c(F)c1` [Example 421, N-tert-Butyl-3′-fluoro-4′-(1H-indol-5-yl)biphenyl-2-sulfonamide], the inhibitory constant (Ki) is 28.3 nM.

With `Nc1ncc(-c2ccc(-c3cccnc3OC3CCNCC3)cc2F)cn1` [Example 646, 5-{2-Fluoro-4-[2-(piperidin-4-yloxy)pyridin-3-yl]phenyl}pyrimidin-2-amine], the Ki was > 10000 nM.

`Cc1nc(-c2ccc(-c3ccccc3S(=O)(=O)NC(C)(C)C)cc2F)cnc1N` [Example 445, 4′-(5-Amino-6-methylpyrazin-2-yl)-N-tert-butyl-3′-fluorobiphenyl-2-sulfonamide] had an inhibition constant (Ki) of 0.5 nM.

`Cc1nc(-c2ccc(-c3ccccc3S(N)(=O)=O)cc2F)cnc1N` [Example 446, 4′-(5-Amino-6-methylpyrazin-2-yl)-3′-fluorobiphenyl-2-sulfonamide] displayed an inhibition constant (Ki) of 304 nM.

For `CC(=O)c1ccccc1-c1ccc(-c2cnc(N)cn2)c(F)c1` [Example 483, 1-[4′-(5-Aminopyrazin-2-yl)-3′-fluorobiphenyl-2-yl]ethanone], the inhibition constant (Ki) is ~354 nM.

The assay is the same for the next values; noted with them: human FLAP wild type, a calculated value of 0.000 indicates Ki less than 1 nM.
Regarding `CNS(=O)(=O)c1cc(C(F)(F)F)ccc1-c1ccc(-c2cnc(N)cn2)c(F)c1` [Example 208, 4′-(5-Aminopyrazin-2-yl)-3′-fluoro-N-methyl-4-(trifluoromethyl)biphenyl-2-sulfonamide], the inhibitory constant (Ki) was < 1 nM.
